Entries after “also recorded” stand apart in the source; their conditions may differ.
Assays:
GIST48 cells = assay: CellTiter-Glo cell viability/proliferation assay, GIST48; type: cell-based, human; conditions: for Inhibition of proliferation as single agent: Example 2; for Combination Index for 70% inhibition of GIST cell proliferation / Synergy Score for inhibition of GIST cell proliferation: Imatinib combined with the compound
Text: (§1) GIST882, GIST48 and GIST430 cell lines were obtained from the Brigham and Women's Hospital, Boston, Mass. GIST882 was established from an untreated human GIST with a homozygous missense mutation in KIT exon 13, encoding a […] mutant KIT protein ([…], et al. Oncogene 2001; 20: 5054-5058). […] GIST48 has a primary homozygous exon 11 missense mutation […]) and a secondary heterozygous exon 17 missense mutation […]). GIST430 has a primary heterozygous exon 11 in-frame deletion and a secondary heterozygous exon 13 missense mutation (V654A). GIST-T1 was obtained from Kochi Medical School, Kochi, Japan. It was established from a metastatic human GIST with a heterozygous […] bases in exon 11 of KIT (Taguchi T, Sonobe H, Toyonaga S, et al. Lab Invest 2002; 82: 663-665). […] Cell proliferation was measured using the CellTiter-Glo luminescent cell viability assay (Promega catalog #G755B) and Victor4 plate reader (Perkin Elmer). Synergy scores and CI70 calculations were determined as described elsewhere (Lehar J, Krueger A S, et al. Nat Biotechnol 2009; 27: 659-666).

GIST882 cells = assay: CellTiter-Glo cell viability/proliferation assay, GIST882; type: cell-based, human; conditions: for Inhibition of proliferation as single agent: GIST882 (K642E mutant KIT), Example 2; for Synergy Score for inhibition of GIST cell proliferation / Combination Index for 70% inhibition of GIST cell proliferation: Imatinib combined with the compound
Text: as §1

GIST-T1 cells = assay: CellTiter-Glo cell viability/proliferation assay, GIST-T1; type: cell-based, human; conditions: for Inhibition of proliferation as single agent: GIST-T1 (ex11del KIT), Example 2; for Combination Index for 70% inhibition of GIST cell proliferation / Synergy Score for inhibition of GIST cell proliferation: Imatinib combined with the compound
Text: as §1

GIST430 cells = assay: CellTiter-Glo cell viability/proliferation assay, GIST430; type: cell-based, human; conditions: for Inhibition of proliferation as single agent: GIST430 (ex11del/V654A KIT), Example 2; for Growth suppression in combination with imatinib versus single agent treatment / Combination Index for 70% inhibition of GIST cell proliferation / Synergy Score for inhibition of GIST cell proliferation: GIST430; for Combination Index for 70% inhibition of GIST cell proliferation / Synergy Score for inhibition of GIST cell proliferation: Imatinib combined with the compound
Text: as §1

GIST cell lines = assay: Combination effect on growth of GIST cell lines (FIG. 6); type: cell-based, human; conditions: combination with nilotinib, presence of 20 ng/ml FGF2, monophosphate
Description: FIG. 6: Combination effect of nilotinib plus BGJ398 in GIST cell lines in the presence of 20 ng/ml FGF2.
10,000 cells suspended in 80 μl media were seeded into each well of a 96-well cell-culture plate and grown for 24 hours prior to treatment. 10 μl of 60 μg/mL heparin (Sigma Catalog # H3149) was added to each well, and then 10 μl of 50 μg/mL FGF2 (R&D Catalog #233-FB/CF) or media was added to each well of the plates. 10 μl of each of the compound dilutions described above and 10 μl of media were added to wells to a final volume 120 μl such that all pair-wise combinations as well as the single agents were represented. Cells were incubated for 72 hrs at 37° C. in a 5% CO2 incubator following compound addition. Cell proliferation was measured using the CellTiter-Glo luminescent cell viability assay (Promega catalog #G755B) and Victor4 plate reader (Perkin Elmer). Synergy scores and CI70 calculations were determined as described elsewhere (Lehar J, Krueger A S, et al. Nat Biotechnol 2009; 27: 659-666).

GIST [1] = conditions: cited from earlier work
GIST [2] = conditions: cited from earlier work; remark: listed apart in the source
[3] = GIST882, absence of FGF2, 3 days
[4] = GIST882, presence of added FGF2, 3 days
[5] = GIST-T1, absence of FGF2, 3 days
[6] = GIST-T1, presence of added FGF2, 3 days
[7] = GIST882, combination with imatinib

Row | Structure (SMILES) | Inhibition of proliferation as single agent (GIST48 cells) | Combination Index for 70% inhibition of GIST cell proliferation (GIST48 cells) | Synergy Score for inhibition of GIST cell proliferation (GIST48 cells) | Inhibition of proliferation as single agent (GIST882 cells) | Synergy Score for inhibition of GIST cell proliferation (GIST882 cells; GIST882) | Inhibition of proliferation as single agent (GIST-T1 cells) | Combination Index for 70% inhibition of GIST cell proliferation (GIST-T1 cells; GIST-T1) | Synergy Score for inhibition of GIST cell proliferation (GIST-T1 cells; GIST-T1) | Inhibition of proliferation as single agent (GIST430 cells) | Growth suppression in combination with imatinib versus single agent treatment (GIST430 cells) | Combination Index for 70% inhibition of GIST cell proliferation (GIST430 cells) | Synergy Score for inhibition of GIST cell proliferation (GIST430 cells) | Growth inhibition as single agent (GIST882 cells; [3]) | Growth inhibition as single agent (GIST882 cells; [4]) | Growth inhibition as single agent (GIST-T1 cells; [5]) | Growth inhibition as single agent (GIST-T1 cells; [6]) | Growth suppression in combination with imatinib versus single agent treatment (GIST882 cells; [7]) | Combination Index for 70% inhibition of GIST cell proliferation (GIST882 cells; GIST882) | also measured
1 | Cc1nc(NC(=O)N2CCC[C@H]2C(N)=O)sc1-c1ccnc(C(C)(C)C(F)(F)F)c1 [COMPOUND D, (S)-pyrrolidine-1,2-dicarboxylic acid 2-amide 1-({4-methyl-5-[2-(2,2,2-trifluoro-1,1-dimethyl-ethyl)-pyridin-4-yl]-thiazol-2-yl}-amide)] | little or no effect | 1.18 | 1.98 | little or no effect | 0.46 | little or no effect | 0.988 | 1.06 | little or no effect | growth suppression was observed in excess of the percent inhibition achieved by imatinib or COMPOUND D single agent treatment | 0.791 | 2.04 |  |  |  |  |  |  | Growth suppression in combination with imatinib versus single agent treatment (GIST48 cells; combination with imatinib): growth suppression was observed in excess of the percent inhibition achieved by imatinib or COMPOUND D single agent treatment
2 | CCN1CCN(c2ccc(Nc3cc(N(C)C(=O)Nc4c(Cl)c(OC)cc(OC)c4Cl)ncn3)cc2)CC1.O=P(O)(O)O [BGJ398, 3-(2,6-dichloro-3,5-dimethoxy-phenyl)-1-{6-[4-(4-ethyl-piperazin-1-yl)-phenylamino]-pyrimid-4-yl}-1-methyl-urea monophosphate] |  |  |  |  |  |  |  |  |  |  |  |  | did not significantly affect the viability | did not significantly affect the viability | did not significantly affect the viability | did not significantly affect the viability |  |  | Combination effect on growth inhibition (GIST882 cells; GIST882, combination with imatinib, presence of FGF2 (20 ng/ml)): strong combination effects; Combination effect on growth inhibition (GIST cell lines): strong combination effects; also recorded: synergy; Combination effect on growth inhibition (GIST-T1 cells; GIST-T1, combination with imatinib, presence of FGF2 (20 ng/ml)): strong combination effects
3 | Nc1cc(C(F)(F)F)c(-c2cc(N3CCOCC3)nc(N3CCOCC3)n2)cn1 [COMPOUND C, 5-(2,6-di-morpholin-4-yl-pyrimidin-4-yl)-4-trifluoromethyl-pyridin-2-ylamine] | inhibited the proliferation of all four cell-lines at low micromolar concentrations | 0.716 | 1.20 | inhibited the proliferation of all four cell-lines at low micromolar concentrations | 1.90 | inhibited the proliferation of all four cell-lines at low micromolar concentrations | 0.782 | 1.29 | inhibited the proliferation of all four cell-lines at low micromolar concentrations | growth suppression was observed in excess of the percent inhibition achieved by imatinib or COMPOUND C single agent treatment | 0.252 | 1.96 |  |  |  |  | growth suppression was observed in excess of the percent inhibition achieved by imatinib or COMPOUND C single agent treatment | 0.597 | 
4 | Cc1cn(-c2cc(NC(=O)c3ccc(C)c(Nc4nccc(-c5cccnc5)n4)c3)cc(C(F)(F)F)c2)cn1 [nilotinib, 4-methyl-3-[[4-(3-pyridinyl)-2-pyrimidinyl]amino]-N-[5-(4-methyl-1H-imidazol-1-yl)-3-(trifluoromethyl)phenyl]benzamide, reference compound] |  |  |  |  |  |  |  |  |  |  |  |  | sensitive |  | sensitive |  |  |  | GI50 shift in the presence of added FGF2 (GIST882 cells; GIST882, 3 days, with vs without added FGF2 (50, 25, 12 ng/ml)): greater than 10 fold; GI50 shift in the presence of added FGF2 (GIST-T1 cells; GIST-T1, 3 days, with vs without added FGF2 (50, 25, 12 ng/ml)): greater than 10 fold
5 | Cc1ccc(NC(=O)c2ccc(CN3CCN(C)CC3)cc2)cc1Nc1nccc(-c2cccnc2)n1 [imatinib, 4-(4-methylpiperazin-1-ylmethyl)-N-[4-methyl-3-(4-(pyridin-3-yl)pyrimidin-2-ylamino)phenyl]-benzamide, reference compound] | imatinib resistant |  |  | potently inhibited |  | potently inhibited |  |  | potently inhibited |  |  |  | efficacious | less sensitive | efficacious | less sensitive |  |  | Recurrence-free survival (RFS) (GIST [1]; 400 mg/day for 12 months compared with placebo, after complete resection (ACOSOGZ9001)): significantly prolonged; RFS and overall survival (GIST [1]; 36 months versus 12 months adjuvant therapy, 400 mg once daily (SSGXVIII/AIO)): superior to 12 months; Progression-free survival (PFS) (GIST [2]; 800 mg/day compared to 400 mg/day, advanced GIST harboring KIT exon 9 mutations): significantly improves; Patients progressing after 2 years of first line therapy (GIST [2]; advanced GIST, first line therapy): more than 50%
6 | Cn1c(=O)n(-c2ccc(C(C)(C)C#N)cc2)c2c3cc(-c4cnc5ccccc5c4)ccc3ncc21 [COMPOUND A, 2-methyl-2-[4-(3-methyl-2-oxo-8-quinolin-3-yl-2,3-dihydro-imidazo[4,5-c]quinolin-1-yl)-phenyl]-propionitrile] | inhibited the proliferation of all four cell-lines at low micromolar concentrations | 1.25 | 0.38 | inhibited the proliferation of all four cell-lines at low micromolar concentrations | 5.07 | inhibited the proliferation of all four cell-lines at low micromolar concentrations | 0.493 | 1.10 | inhibited the proliferation of all four cell-lines at low micromolar concentrations | growth suppression was observed in excess of the percent inhibition achieved by imatinib or COMPOUND A single agent treatment | 0.260 | 2.06 |  |  |  |  | growth suppression was observed in excess of the percent inhibition achieved by imatinib or COMPOUND A single agent treatment | 0.194 | 
